One test deals with inoculum (ileal). Description: In vitro swine procedure, ileal inoculum incubation (VFA, lysine, glucose, L-lactic acid). The arrangement: species or system swine (Yorkshire barrow).
The subject of the next test is inoculum (cecal). Description: In vitro swine procedure, cecal inoculum incubation (VFA, lysine, glucose, L-lactic acid). Further details: species or system swine (Yorkshire barrow).
The subject of test [1] is post weanling pigs. The test is described as follows: Post weanling pig feeding test, corn based pre-starter feed (Example 6). The format is in vivo. Particulars: 10 ppm; corn ration. An excerpt: Each replication contained 8 treatment groups in turn comprising 2 pigs per pen.
The test system of test [2] is post weanling pigs. Description: Pig feeding test, corn and rye diets (Example 7). Type of test: in vivo. The note with it: 10 ppm. As for the experimental part:
Each replication contained 8 treatment groups in turn comprising 2 pigs per pen. The experiment was run similar to that of Example 6 except another control having a rye diet was added.

For test [3] the following is noted: W. Barker et al., J. Antibiotics 32 1096 (1979); cited from earlier work.
[4] abbreviates: ileal, 167 ppm, positive control of run 1(a), DMSO series (carrier not given).

Several values for one entry are separate records, joined by “and”; a condition that tells them apart may be missing. Equal entries are not always repeated. Where two headings read alike, the source gives them in different places.

`O=[N+]([O-])c1ccc([O-])[n+]([O-])c1.O=[N+]([O-])c1ccc([O-])[n+]([O-])c1.[Cu+2]` [5-Nitro-2-hydroxypyridine-N--oxide, Cu^++]: in the test with inoculum (ileal), the “LYS (lysine)” value is given as 109. In the test on inoculum (ileal) (ileal, 167 ppm), the “GLU (glucose)” value was 110 % of blank control values and 104 % of blank control values; the “LAC (L-lactic acid)” value is 160 % of blank control values and 106 % of blank control values; the “LYS (lysine)” value is 159 % of blank control values; the “VFA (total of volatile fatty acids)” value is 47 % of blank control values and 48 % of blank control values.

virginiamycin: the “GLU (glucose)” value is on record as 133 % of blank control values in the test with inoculum (ileal) (ileal, 167 ppm); 101 % of blank control values with inoculum (ileal) (setting [4]); 30 % of blank control values in the test on inoculum (cecal) (cecal, 0.17 ppm); 72 % of blank control values with inoculum (cecal) (cecal, 1.67 ppm); 524 % of blank control values in the test on inoculum (cecal) (cecal, 16.67 ppm); 732 % of blank control values in the test on inoculum (cecal) (cecal, 167 ppm). Further, the “LAC (L-lactic acid)” value with inoculum (ileal) (ileal, 167 ppm) is 29 % of blank control values; in the test with inoculum (ileal) (setting [4]) it was 16 % of blank control values; with inoculum (cecal) (cecal, 16.67 ppm) it was 35 % of blank control values; in the test with inoculum (cecal) (cecal, 167 ppm), 49 % of blank control values. Further, the “LYS (lysine)” value in the test with inoculum (ileal) (ileal, 167 ppm) is recorded as 134 % of blank control values; with inoculum (ileal) (setting [4]) it was 167 % of blank control values; with inoculum (cecal) (cecal, 0.17 ppm), 71 % of blank control values; in the test on inoculum (cecal) (cecal, 1.67 ppm), 74 % of blank control values; in the test with inoculum (cecal) (cecal, 16.67 ppm), 107 % of blank control values; in the test on inoculum (cecal) (cecal, 167 ppm) it was 172 % of blank control values. The “VFA (total of volatile fatty acids)” value is given as 14 % of blank control values in the test with inoculum (ileal) (setting [4]); 94 with inoculum (cecal); 100 % of blank control values in the test with inoculum (cecal) (cecal, 1.67 ppm); 83 % of blank control values in the test on inoculum (cecal) (cecal, 16.67 ppm); 89 % of blank control values with inoculum (cecal) (cecal, 167 ppm). In the test with post weanling pigs [1], the “Average daily gain (0-21 days)” value is given as “.667”. In the test on post weanling pigs [1], the Feed/gain stood at 2.56. Also, in the test on post weanling pigs [1], the “Feed/gain, percent in parentheses (control 100%)” value came out at 97.4%. Also, the “Average Daily Gain, 0-23 days” value with post weanling pigs [2] (Vm + Cont. (corn diet)) was determined as 0.582 kg; in the test on post weanling pigs [2] (Vm + Rye (rye diet)), 0.529 kg.

As for `COc1ccc(=O)n([O-])c1C.COc1ccc(=O)n([O-])c1C.[Cu+2]` [copper salt of 2-hydroxy-5-methoxy-6-methylpyridine-N-oxide], the “antimicrobial activity relative to iron salt and ligand parent” value in test [3] is “less antimicrobial activity than does either the corresponding iron salt or the ligand parent”.

Take `O=S(=O)([O-])[O-].[Cu+2]` [Copper sulfate]: in the test on inoculum (ileal) (ileal, 3.3 ppm), the “GLU (glucose)” value is 109 % of blank control values, the “LAC (L-lactic acid)” value is recorded as 113 % of blank control values, the “LYS (lysine)” value is on record as 107 % of blank control values and the “VFA (total of volatile fatty acids)” value is 99 % of blank control values. Also, in the test on inoculum (ileal) (ileal, 33.3 ppm), the “GLU (glucose)” value is 98 % of blank control values, the “LAC (L-lactic acid)” value is given as 104 % of blank control values and the “VFA (total of volatile fatty acids)” value is reported as 99 % of blank control values. Also, in the test on inoculum (ileal) (ileal, 333.33 ppm), the “GLU (glucose)” value is listed as 113 % of blank control values, the “LAC (L-lactic acid)” value is 137 % of blank control values, the “LYS (lysine)” value is on record as 107 % of blank control values and the “VFA (total of volatile fatty acids)” value was 47 % of blank control values.

(Values after US4454137A, “Feed compositions containing copper salts of 2-hydroxypyridine-N-oxides” (SmithKline Beckman Corporation, priority 1982, dated 1984).)
